Laboratory results as given in patent US20250161473A1, “EXATECAN DERIVATIVE-ANTIBODY CONJUGATE AND MEDICAL USE THEREOF” (Gan & Lee Pharmaceuticals Co., Ltd., priority 2022, published 2025).
Like-named read-outs stand apart in the source and are kept apart here.

Test system: MDA-MB-468 cell line with high TROP-2 expression
Experiment: Inhibition test of Exatecan derivatives (payload) on in vitro proliferation of tumor cells
Format: cell-based, human
Conditions: read-out: IC50 of MDA-MB-468 cell proliferation inhibition in vitro
Procedure: The cell line used in this experiment is the MDA-MB-468 cell line with high TROP-2 expression (Nanjing Cobioer Biosciences Co., Ltd., catalog number: CBP60387). Prepare cell suspension with fresh cell culture medium containing 10% FBS at a density of 3×10^3 cells/mL, add 90 μL per well into an all-white 96-well cell culture plate (Beyotime, item number: FCP968-80pcs), 5% carbon dioxide 37° C. for 24 h. Compounds 1-36 were formulated with DMSO to 1 mM, respectively. Add 20 μL of different samples to be tested in the first column of the 96-well U-bottom dispensing plate, and the sample concentration is 1000 uM; add 20 μL DMSO to each well of the second to tenth columns. Take 5 μL of the sample from the first column to 20 μL DMSO in the second column, mix well, take 5 μL to the third column, and so on to the ninth column. Take 5 μL of the medicine from each well of the dispensing plate to 95 μL of DMEM medium, and mix well. Add 10 μL of prepared samples to be tested at different concentrations to the culture plate, and duplicate wells for each sample. 5% carbon dioxide and cultured at 37° C. for 3 days. Add 50 μL of CTG (CellTiter-Glo® Luminescent Cell Viability Assay, Promega, item number: G7573) to each well, mix on a shaker at room temperature for 30 minutes, incubate for 10 minutes, and read chemiluminescence on a microplate reader (TECAN, Spark). Graphpad Prism 8 software used for data analysis.

Row | Compound | IC50 (Homo sapiens, MDA-MB-468, 72 h) [nM] | other results
1 | CC[C@@]1(O)C(=O)OCc2c1cc1n(c2=O)Cc2c-1nc1cc(F)c(C)c3c1c2[C@@H](NC(=O)C1CNC1)CC3 [Compound 1] | 135 | 
2 | CC[C@@]1(O)C(=O)OCc2c1cc1n(c2=O)Cc2c-1nc1cc(F)c(C)c3c1c2[C@@H](NC(=O)Cc1ccc(N)cc1)CC3 [Compound 2] | 3.38 | 
3 | CC[C@@]1(O)C(=O)OCc2c1cc1n(c2=O)Cc2c-1nc1cc(F)c(C)c3c1c2[C@@H](NC(=O)Cc1ccc(NC(=O)CO)cc1)CC3 [Compound 3] | 43.6 | 
4 | CC[C@@]1(O)C(=O)OCc2c1cc1n(c2=O)Cc2c-1nc1cc(F)c(C)c3c1c2[C@@H](NC(=O)[C@@H]1CCCN1)CC3 [Compound 4] | 4.32 | 
5 | CC[C@@]1(O)C(=O)OCc2c1cc1n(c2=O)Cc2c-1nc1cc(F)c(C)c3c1c2[C@@H](NC(=O)[C@@H]1CCCN1C(=O)CO)CC3 [Compound 5] | 19.3 | 
6 | CC[C@@]1(O)C(=O)OCc2c1cc1n(c2=O)Cc2c-1nc1cc(F)c(C)c3c1c2[C@@H](NC(=O)c1ccc(O)c(Cl)c1)CC3 [Compound 6] | 9.81 | 
7 | CC[C@@]1(O)C(=O)OCc2c1cc1n(c2=O)Cc2c-1nc1cc(F)c(C)c3c1c2[C@@H](NC(=O)c1ccc(Cl)c(O)c1)CC3 [Compound 7] | 9.45 | 
8 | CC[C@@]1(O)C(=O)OCc2c1cc1n(c2=O)Cc2c-1nc1cc(F)c(C)c3c1c2[C@@H](NC(=O)NCC(F)(F)F)CC3 [Compound 8] | 2.72 | 
9 | CC[C@@]1(O)C(=O)OCc2c1cc1n(c2=O)Cc2c-1nc1cc(F)c(C)c3c1c2[C@@H](NC(=O)N[C@H]1CCCNC1)CC3 [Compound 12] | 56.2 | 
10 | CC[C@@]1(O)C(=O)OCc2c1cc1n(c2=O)Cc2c-1nc1cc(F)c(C)c3c1c2[C@@H](NC(=O)N[C@H]1CCNC1)CC3 [Compound 13] | 76.5 | 
11 | CC[C@@]1(O)C(=O)OCc2c1cc1n(c2=O)Cc2c-1nc1cc(F)c(C)c3c1c2[C@@H](NC(=O)N[C@@H]1CCNC1)CC3 [Compound 14] | 48 | 
12 | CC[C@@]1(O)C(=O)OCc2c1cc1n(c2=O)Cc2c-1nc1cc(F)c(C)c3c1c2[C@@H](NC(=O)Cc1ccc(N)cc1OC)CC3 [Compound 19] | 7.52 | 
13 | CC[C@@]1(O)C(=O)OCc2c1cc1n(c2=O)Cc2c-1nc1cc(F)c(C)c3c1c2[C@@H](NC(=O)Cc1ccc(N)cc1F)CC3 [Compound 21] | 3.05 | 
14 | CC[C@@]1(O)C(=O)OCc2c1cc1n(c2=O)Cc2c-1nc1cc(F)c(C)c3c1c2[C@@H](NC(=O)Cc1ccc(O)cc1)CC3 [Compound 22] | 2.6 | 
15 | CC[C@@]1(O)C(=O)OCc2c1cc1n(c2=O)Cc2c-1nc1cc(F)c(C)c3c1c2[C@@H](NC(=O)Cc1cccc(N)c1)CC3 [Compound 23] |  | IC50 (Homo sapiens, 72 h, MDA-MB-468 cells, 3 days, CellTiter-Glo): 2.64 nM
16 | CC[C@@]1(O)C(=O)OCc2c1cc1n(c2=O)Cc2c-1nc1cc(F)c(C)c3c1c2[C@@H](NC(=O)Cc1ccccc1N)CC3 [Compound 24] | 1.65 | 
17 | CC[C@@]1(O)C(=O)OCc2c1cc1n(c2=O)Cc2c-1nc1cc(F)c(C)c3c1c2[C@@H](NC(=O)CCc1ccc(N)cc1)CC3 [Compound 25] | 8.63 | 
18 | CC[C@@]1(O)C(=O)OCc2c1cc1n(c2=O)Cc2c-1nc1cc(F)c(C)c3c1c2[C@@H](NC(=O)CCCc1ccc(N)cc1)CC3 [Compound 26] | 3.28 | 
19 | CC[C@@]1(O)C(=O)OCc2c1cc1n(c2=O)Cc2c-1nc1cc(F)c(C)c3c1c2[C@@H](NC(=O)C1CCNCC1)CC3 [Compound 31] | 136 | 
20 | CC[C@@]1(O)C(=O)OCc2c1cc1n(c2=O)Cc2c-1nc1cc(F)c(C)c3c1c2[C@@H](NC(=O)C1CCCN1)CC3 (some centres unmarked) [Compound 36] |  | IC50 (MDA-MB-468 cells, 3 days, CellTiter-Glo): 6.34 nM
